Consider 1 molecule from article PMC11574108, “4-Furanylvinylquinoline derivative as a new scaffold for the design of oxidative stress initiator and glucose transporter inhibitor drugs” (Scientific Reports, 2024).

In one test the test system is U-251. The test is described as follows: Cell cycle assay (flow cytometry). It is filed as cell-based, human. The settings on record: 2xIC50, 24-h treatment; control 20.44%. The procedure:
(§1) The cells were seeded in 35 mm Petri dishes, 200,000 cells per dish, and incubated overnight under standard conditions at 37 °C. […] After a 24-h incubation, the experiment was carried out using a Muse™ Cell Cycle Kit (Millipore) according to the available procedure. Briefly, the cells were detached and collected in Eppendorf tubes. The samples were then washed with cold phosphate-buffered saline (PBS), centrifuged at 300 g (5 min), and fixed in ice-cold 70% ethanol. The cells were stored at -20 °C overnight. The next day, the samples were sequentially washed with cold PBS, centrifuged resuspended in 200 µL of Muse™ Cell Cycle Reagent, and incubated in the dark for 30 min at room temperature. The percentage of cells in specified cell cycle phases was estimated using a Muse™ Cell Analyzer (Millipore). The experiments were carried out three times.
(§2) When analysing the antiproliferative activity of the tested compounds, we decided to determine the molecular mechanism of action of the most promising derivative 13 in three cell lines with different statuses of p53, for which the derivative has the highest activity. In order to achieve this goal, we started by studying the changes in the cell cycle in order to determine why proliferation stops. To evaluate the effect of derivative 13 on the cell cycle progression, we used flow cytometry. After a 24-h treatment, we observed a significant inhibition in the G2/M phase in both HCT 116 cell lines (Fig. 4A).
In general terms: In flow cytometry, cells or beads pass a laser one at a time.

Test [1] concerns HCT 116 p53+/+. The test is described as follows: Cell cycle assay (flow cytometry). Format: cell-based, human. The settings on record: 2xIC50, 24-h treatment; control 30.81%. How it is done:
as §1, §2

For test [2], the system named is HCT 116 p53-/-. Description: Cell cycle assay (flow cytometry). It is filed as cell-based, human. The settings on record: 2xIC50, 24-h treatment; control 34.35%. The procedure: as §1, §2
Test [3] deals with HCT 116 p53+/+. Description: Monolayer antiproliferative MTS assay. Format: cell-based, human. The settings on record: 2D monolayer; for IC50: MTS, 72-h incubation. The text has this: (§3) The human colon carcinoma cell line HCT 116 with wild-type p53 (p53^+/+) and the human glioblastoma cell line U-251 were obtained from ATCC, while the HCT 116 with a p53 deletion (p53^−/−) was kindly provided by Prof. M. Rusin from the Maria Sklodowska-Curie Memorial Cancer Center and Institute of Oncology in Gliwice, Poland. The human chronic myelogenous leukaemia cell line K562 and the normal human cell dermal fibroblast cell line NHDF were purchased from Sigma-Aldrich and PromoCell, respectively. Both the HCT 116 and U-251 cell lines were cultured in Dulbecco’s modified Eagle’s medium (DMEM) supplemented with 10% inactivated foetal bovine serum (FBS). The DMEM for the NHDF contained 15% non-inactivated FBS. K562 cells were cultured in RPMI medium completed by 10% inactivated FBS. Additionally, the media were supplemented with antibiotics (streptomycin and penicillin – 1% v/v; Sigma-Aldrich). The cell culture was conducted in 75 cm^2 flasks (Nunc) under standard conditions (37 °C, 5% CO2 humidified atmosphere). Furthermore, the cell lines were frequently tested for mycoplasma using the qRT-PCR technique with specific Mycoplasma primers to confirm the lack of contamination.
(§4) The cells were seeded in 96-well plates (Nunc) with 5,000 or 4,000 cells per well for the cancer cells and NHDF, respectively, and incubated under standard conditions at 37 °C overnight. The culture media were then changed for freshly prepared solutions of the tested compounds in various concentrations. After 72-h incubation the antiproliferative assay was carried out as follows: the solutions of the compounds were changed in each well to 100 µL DMEM without phenol red and 20 µL of CellTiter 96 AQueous One Solution-MTS (Promega). The plates were incubated for 1 h at 37 °C, and the absorbance was then measured at 490 nm using a multi-plate reader (Synergy 4, BioTek). The experiment for each sample was repeated at least three times.
(§5) Additionally, the compounds were also tested for their cytotoxicity against normal cells – human dermal fibroblasts (NHDF).
(Tetrazolium assays rely on reduction of a dye to a coloured formazan, in cell work by metabolically active cells.)

Test [4] deals with HCT 116 p53-/-. The test is described as follows: Monolayer antiproliferative MTS assay. Format: cell-based, human. To be noted: 2D monolayer; for IC50: MTS, 72-h incubation.
From the text: as §3, §4, §5

The test system of another test is CT-DNA. Description: Intercalation, spectrophotometric study on CT-DNA. Format: binding, calf. The settings on record: 18 µM CT-DNA, 1.5 h, 37 °C, absorption spectra. The procedure: Lyophilized calf-thymus DNA (CT-DNA; Sigma-Aldrich) was dissolved in 10 mM Tris-HCl (pH 7.9), mixed gently, and kept overnight at 4 °C. The purity of the CT-DNA solution was determined by measurement of the ratio of UV absorbance at 260 and 280 nm. […] The tested compound was dissolved in DMSO to give a concentration of 8.35 mM. This stock solution was used for preparing new solutions (25, 12.5, 6, and 3 µM) in 1 mL of 10 mM Tris-HCl (pH 7.9). Next, 18 µM CT-DNA was added to the prepared solutions, and the samples were incubated for 1.5 h at 37 °C with occasional vortexing. The measurements of the absorption spectra were performed using a Hitachi U-2900 spectrophotometer in the range of 200–500 nm. The obtained data were analysed using GraphPad Prism v.8.0 (USA).
To determine whether and to what extent the compound interacts with DNA, we also performed a spectrophotometric study on CT-DNA. […] (Fig. S2). Nevertheless, under the effect of stress-induced DNA damage in cells, […], which inhibited the CDK1 and cyclin B1 complex. This had the effect of arresting the cell cycle in the G2/M phase in an attempt to repair the DNA damages or induce apoptosis[29],[30]. Abnormal CDK1 activation is often thought to be connected with tumourigenesis. […]

Regarding `O=[N+]([O-])c1ccc(/C=C/c2ccnc3ccccc23)o1` [Compound 13], the “percentage of cells in S phase” value in the test on U-251 is 35.59%. For the same molecule, the “population of cells in G2/M phase” value is given as 49.78% in the test with HCT 116 p53+/+ [1] and 44.95% in the test with HCT 116 p53-/- [2]. Also, the IC50 in the test on HCT 116 p53+/+ [3] is 69 ± 9 nM; in the test with HCT 116 p53+/+ [3] (Homo sapiens, HCT-116, 72 h), less than 100 nM; with HCT 116 p53-/- [4] it was 94 ± 10 nM; in the test on HCT 116 p53-/- [4] (Homo sapiens, HCT-116, 72 h), less than 100 nM. Also, the “SI (selectivity index) HCT 116 p53+/+” value in the test with HCT 116 p53+/+ [3] (relative to NHDF) was 9.41. In addition, in the test on HCT 116 p53-/- [4] (relative to NHDF), the “SI (selectivity index) HCT 116 p53-/-” value is 6.90. Moreover, the hypochromism with CT-DNA is listed as 10.97%.

By IC50 is commonly meant the concentration at which inhibition is half-maximal.
